The text below walks through data of patent US20030104079A1, “Skin tissue regeneration promoters comprising ginsenoside Rb1” (Japan Science and Technology Corporation, Japan, priority 2000, published 2003).

SMILES strings stand for the structures.

Series [1] concerns skin fibroblast. The settings on record: extracellular concentration 10 μg/ml; cited from earlier work.
A short description of series [2]: Observation of administered animals for side effects. The settings on record: present experiments, animals carefully observed. Format: in vivo, rats. The text has this:
The amount of administration of ginsenoside Rb1, which is used as the preparation(s) for external or topical application to skin or the preparation(s) for external or topical application to mucosa, is far smaller than the amount of intravenous administration.
Actually, as indicated in PCT/JP00/04102 (Brain cell or nerve cell protecting agents comprising ginseng), as far as directing treatment or therapy of cerebral infarction by continuous intravenous administration in a dose of […] (weighing 300 g), dihydroginsenoside Rb1 is thought to be a quite safe pharmaceutical composition. The amount of administration of ginsenoside Rb1, which is used as the preparation(s) for external or topical application to skin or the preparation(s) for external or topical application to mucosa, is far smaller than the amount of intravenous administration.

The subject of series [3] is morsus of human oral mucosa. Put plainly: Therapy of morsus of human oral mucosa by external application. Format: in vivo. The following applies: propet containing 0.00001% by weight. The text has this:
Next, one of the present inventors had confirmed by themself whether or not propet containing low concentration of ginsenoside Rb1 was effective to morsus of mouth or oral mucosa. On May 2nd, 2000, at about 2:00 p.m. after dental treatment, […] had started to have late lunch before waking up from infiltration anesthesia of the left third branch of the trigeminal nerve and periodontal anesthesia due to heavy hunger. They had bitten themself three times their own left lip mucosa and since they felt iron taste (blood) in their oral cavity, as a result of confirmation of their morsus by a mirror, they found at least five regions of erosion or defect of mouth or oral mucosa, further hematocele or hematoma was found at one spot. Since they concluded that if it (i.e. morsus of oral mucosa) was allowed to leave as it is, aphthous stomatitis would be complicated within several days to require a week to ten days for complete cure, propet containing a low concentration (0.00001% by weight) of ginsenoside Rb1, which had been confirmed to show effectiveness and efficacy by animal experiments of the present inventors, was applied with small amount to the five regions with erosion or defect of oral mucosa and one hematocele or hematoma region. External or topical application was performed before and after meal and before and after eating between meals. The external or topical application was performed after tooth brushing was performed as much as possible after the meal. Namely, propet containing 0.00001% by weight of ginsenoside Rb1 was applied externally or topically onto morsus regions of the labial mucosa separately 6-10 times a day. FIG. 7 is a photograph in place of drawing.
Next, one of inventors of the present invention (Sakanaka) had bitten again left lower labial mucosa on May 26, 2000 during lunch, and propet containing 0.00001% by weight of ginsenoside Rb1 was applied topically or externally onto the morsus region. A photograph just after morsus is shown in left of FIG. 8, and a photograph at 72 hours after morsus is shown in right of FIG. 8.
Next, one of the present inventors had confirmed by themself whether propet containing low concentrations of ginsenoside Rb1 was effective for morsus of mouth mucosa or not. On May 2nd, 2000, at about 2:00 p.m. after dental treatment, […] had started to have late lunch before awakening from infiltration anesthesia of the left third division of the trigeminal nerve and periodontal anesthesia due to heavy hunger. They had bitten themself three times their own left lip mucosa and they felt iron taste (blood) in their oral cavity. As a result of confirmation of their morsus by a mirror, they found at least five regions of erosion or defect of mouth mucosa, further hematoma was found at one spot. Since they concluded that if the morsus was allowed to leave as it was, aphthous stomatitis would be developed as a complication to require a week to ten days for complete cure, a small amount of propet containing a low concentration (0.00001% by weight) of ginsenoside Rb1, which had been confirmed to show effectiveness and efficacy by animal experiments of the present inventors, was topically or externally applied to the five regions with erosion or defect of oral mucosa and to one hematoma region. External or topical application was performed before and after meal and before and after eating between meals. […]

With `CC(C)=CCC[C@](C)(O[C@@H]1O[C@H](CO[C@@H]2O[C@H](CO)[C@@H](O)[C@H](O)[C@H]2O)[C@@H](O)[C@H](O)[C@H]1O)[C@H]1CC[C@]2(C)[C@@H]1[C@H](O)C[C@@H]1[C@@]3(C)CC[C@H](O[C@@H]4O[C@H](CO)[C@@H](O)[C@H](O)[C@H]4O[C@@H]4O[C@H](CO)[C@@H](O)[C@H](O)[C@H]4O)C(C)(C)[C@@H]3CC[C@]12C` [ginsenoside Rb1], the production of elastin result in series [1] is “can promote production of elastin in the skin fibroblast”. The “side effect in administered animals” value in series [2] is on record as “no side effect or ill effect was noted”. Moreover, the “pain in the wounded regions” value in series [3] is “markedly reduced”. Moreover, the “epithelization of morsus regions of labial mucosa (FIG. 7)” value in series [3] (6-10 times a day, 96 hours after morsus, one person) is on record as “almost complete epithelization”. For the same molecule, the “complication of aphthous stomatitis after morsus” value in series [3] (first case) is on record as “no complication of aphthous stomatitis was observed”. Further, the “cure of morsus (FIG. 8)” value in series [3] (second case, 72 hours after morsus) was “rapidly cured without developing aphthous stomatitis as a complication”. Moreover, the “time in which morsus (wound) healing is markedly promoted” value in series [3] (such morsus usually requires at least 7 to 10 days) was no more than 96 h.
